Laboratory results: ChEMBL document CHEMBL5126556, “Recent advances in natural anti-obesity compounds and derivatives based on in vivo evidence: A mini-review” (Eur J Med Chem, 2022)
pIC50, pKd: −log10 of the molar value. Values belong to the molecule of their own block, whether it stands above or below them.

Legend:
[1] = target: T1, Pancreatic triacylglycerol lipase (Sus scrofa, UniProt P00591); experiment: Inhibition of porcine pancreatic lipase using trioleate as substrate assessed as inhibition of substrate hydrolysis measured for 10 mins
T1 sequence (P00591 whole entry): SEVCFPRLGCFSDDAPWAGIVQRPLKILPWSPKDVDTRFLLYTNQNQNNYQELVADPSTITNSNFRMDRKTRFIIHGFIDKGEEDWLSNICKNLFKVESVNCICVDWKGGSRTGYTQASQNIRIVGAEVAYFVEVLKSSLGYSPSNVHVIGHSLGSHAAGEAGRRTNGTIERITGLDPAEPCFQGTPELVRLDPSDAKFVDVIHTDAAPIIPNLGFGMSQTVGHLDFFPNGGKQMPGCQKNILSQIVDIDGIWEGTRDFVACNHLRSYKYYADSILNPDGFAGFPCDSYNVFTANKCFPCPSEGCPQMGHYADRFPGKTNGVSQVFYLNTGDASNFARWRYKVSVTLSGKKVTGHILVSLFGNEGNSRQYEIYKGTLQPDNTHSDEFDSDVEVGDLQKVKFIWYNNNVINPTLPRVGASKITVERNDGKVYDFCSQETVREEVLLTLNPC

[2] = target: BDNF/NT-3 growth factors receptor (Homo sapiens, UniProt Q16620); experiment: Binding affinity to recombinant human TrkB receptor ECD assessed as dissociation constant
BDNF/NT-3 growth factors receptor, sequence (Q16620 whole entry, the tested form may be a part): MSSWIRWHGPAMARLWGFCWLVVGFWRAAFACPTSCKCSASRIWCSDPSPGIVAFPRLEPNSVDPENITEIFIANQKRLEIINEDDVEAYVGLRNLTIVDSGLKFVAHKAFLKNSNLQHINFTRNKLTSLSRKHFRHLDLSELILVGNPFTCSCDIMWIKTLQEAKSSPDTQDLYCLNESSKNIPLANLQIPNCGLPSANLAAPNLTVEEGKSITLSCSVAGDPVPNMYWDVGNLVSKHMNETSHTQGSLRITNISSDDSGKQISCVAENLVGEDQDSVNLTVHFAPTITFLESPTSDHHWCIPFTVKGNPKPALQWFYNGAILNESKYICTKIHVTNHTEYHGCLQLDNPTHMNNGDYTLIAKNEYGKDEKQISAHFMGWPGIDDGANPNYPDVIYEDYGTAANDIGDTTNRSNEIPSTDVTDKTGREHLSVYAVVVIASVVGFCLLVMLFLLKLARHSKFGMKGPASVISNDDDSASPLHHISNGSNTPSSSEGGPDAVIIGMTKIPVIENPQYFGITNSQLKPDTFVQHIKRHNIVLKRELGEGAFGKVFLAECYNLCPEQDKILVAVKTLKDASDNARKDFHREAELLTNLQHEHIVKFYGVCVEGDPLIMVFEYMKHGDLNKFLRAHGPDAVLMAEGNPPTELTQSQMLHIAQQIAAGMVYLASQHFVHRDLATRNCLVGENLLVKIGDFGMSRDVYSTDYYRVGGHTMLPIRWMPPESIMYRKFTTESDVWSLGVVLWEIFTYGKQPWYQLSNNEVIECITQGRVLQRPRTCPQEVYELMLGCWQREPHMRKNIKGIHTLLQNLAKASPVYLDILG

Mus musculus [3] = experiment: Anti-obesity activity in female C57BL/6 mouse model of high-fat diet induced obesity assessed as body weight change administered orally for 20 weeks relative to control; type: functional; conditions: route po
Mus musculus [4] = experiment: Anti-obesity activity in male C57BL/6 mouse model of high-fat diet induced obesity assessed as body weight change at 2.5 mg/kg, ip administered once a day for 8 weeks relative to control; type: functional
[5] = target: T2, Dihydrolipoyllysine-residue acetyltransferase component of pyruvate dehydrogenase complex, mitochondrial (Homo sapiens, UniProt P10515); experiment: Binding affinity to recombinant GFP fused […] (unknown origin) by Lip-SMap analysis
T2 sequence (P10515 whole entry): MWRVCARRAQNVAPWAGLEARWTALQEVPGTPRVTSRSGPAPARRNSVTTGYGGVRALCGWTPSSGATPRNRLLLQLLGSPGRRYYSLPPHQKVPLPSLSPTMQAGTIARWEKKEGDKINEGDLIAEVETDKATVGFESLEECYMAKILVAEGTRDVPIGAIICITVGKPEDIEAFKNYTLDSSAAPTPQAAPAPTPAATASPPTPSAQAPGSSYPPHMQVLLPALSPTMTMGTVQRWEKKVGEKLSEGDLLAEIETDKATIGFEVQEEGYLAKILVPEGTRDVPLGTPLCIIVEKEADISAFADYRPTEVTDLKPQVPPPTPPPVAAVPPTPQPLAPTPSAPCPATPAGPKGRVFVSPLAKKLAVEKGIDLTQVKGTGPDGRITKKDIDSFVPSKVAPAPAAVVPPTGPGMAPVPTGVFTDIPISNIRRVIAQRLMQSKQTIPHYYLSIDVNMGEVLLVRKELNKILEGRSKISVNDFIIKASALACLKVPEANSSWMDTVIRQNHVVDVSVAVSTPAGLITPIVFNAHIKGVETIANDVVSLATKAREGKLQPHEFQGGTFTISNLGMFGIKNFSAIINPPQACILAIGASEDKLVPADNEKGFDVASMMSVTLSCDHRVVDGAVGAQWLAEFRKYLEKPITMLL

Mus musculus [6] = experiment: Anti-obesity activity in male C57BL/6 mouse model of high-fat diet induced obesity assessed as body weight change at 50 mg/kg, ip administered every other day for 5 weeks relative to control; type: functional
Mus musculus [7] = experiment: Anti-obesity activity in male C57BL/6 mouse model of high-fat diet induced obesity assessed as body weight change at 100 mg/kg, po administered once a day for 9 weeks relative to control; type: functional
[8] = Inhibition of V-ATPase in bovine chromaffin granules incubated for 1 hrs by absorbance based assay; type: subcellular, Bos taurus, Chromaffin granule
Mus musculus [9] = experiment: Anti-obesity activity in male C57BL/6 mouse model of high-fat diet induced obesity assessed as body weight change at 5 mg/kg, po administered thrice a week for 8 weeks relative to control; type: functional
Mus musculus [10] = experiment: Anti-obesity activity in high-fat diet induced C57BL/6 obese mouse model assessed as body weight change at 30 mg/kg, po administered once daily for 10 weeks relative to control; type: functional
Mus musculus [11] = experiment: Anti-obesity activity in male C57BL/6 mouse model of high-fat diet induced obesity assessed as body weight change at 30 mg/kg, po administered once a day for 10 weeks relative to control; type: functional
Mus musculus [12] = experiment: Anti-obesity activity in male C57BL/6 mouse model of high-fat diet induced obesity assessed as body weight change at 20 mg/kg, po administered once a day for 8 weeks relative to control; type: functional
Mus musculus [13] = experiment: Anti-obesity activity in male C57BL/6 mouse model of high-fat diet induced obesity assessed as body weight change at 1 mg/kg, po administered once a week for 7 weeks relative to control; type: functional
Mus musculus [14] = experiment: Anti-obesity activity in male C57BL/6 mouse model of high-fat diet induced obesity assessed as body weight change at 20 mg/kg, ip administered twice a week for 12 weeks relative to control; type: functional
[15] = Toxicity in po dosed mouse assessed as lethal dose; type: organism-based; conditions: in vivo
Mus musculus [16] = experiment: Anti-obesity activity in male C57BL/6 mouse model of high-fat diet induced obesity assessed as body weight change at 0.1 mg/kg, ip administered once a day for 3 weeks relative to control; type: functional
Mus musculus [17] = experiment: Anti-obesity activity in male C57BL/6 mouse model of high-fat diet induced obesity assessed as body weight change at 3 mg/kg, po administered once a day for 8 weeks relative to control; type: functional
Mus musculus [18] = experiment: Anti-obesity activity in male C57BL/6 mouse model of high-fat diet induced obesity assessed as body weight change at 10 mg/kg, po administered once a day for 3 weeks relative to control; type: functional
Mus musculus [19] = experiment: Anti-obesity activity in male C57BL/6 mouse model of high-fat diet induced obesity assessed as body weight change at 15 mg/kg, ip administered once a day for 8 weeks relative to control; type: functional

pIC50 [1]: 6.85
Structure (SMILES): CCCCC/C=C\C/C=C\C[C@@H](C[C@@H]1OC(=O)[C@H]1CCCCCC)OC(=O)[C@H](CC(C)C)NC=O

pKd [2]: 8.00
Structure (SMILES): O=c1cc(-c2ccccc2)oc2c(O)c(O)ccc12 [7,8-DIHYDROXYFLAVONE]
Activity (Mus musculus [3]): 72.2%

Structure (SMILES): CC(C)=CCC[C@]1(C)[C@@H](CC=C(C)C)C[C@]2(CC=C(C)C)C(=O)C(CC=C(C)C)=C(O)[C@@]1(C(=O)C(C)C)C2=O
Activity (Mus musculus [4]): -13.7%
pKd [5]: 6.24

Structure (SMILES): O=Cc1c(-c2nc3ccccc3c(=O)[nH]2)[nH]c2ccccc12
Activity (Mus musculus [6]): -11.8%

pIC50 [8]: 7.77
Structure (SMILES): COc1cc2c(O)c3c(c(-c4ccc5c(c4)OCO5)c2cc1OC)C(=O)OC3 [DIPHYLLIN]
Activity (Mus musculus [7]): 13.7%

Structure (SMILES): Cc1coc2c1C(=O)C(=O)c1c-2ccc2c(C)cccc12 [TANSHINONE I]
Activity (Mus musculus [9]): 30.6%

Structure (SMILES): O=c1oc2cc(O)ccc2c2ccc(O)cc12
Activity (Mus musculus [10]): 42.7%
Activity (Mus musculus [11]): 30.8%

Structure (SMILES): C=C1C(=O)O[C@@H]2C[C@@]3(C)CCCC(=C)[C@@H]3C[C@H]12 [ISOALANTOLACTONE]
Activity (Mus musculus [12]): 44.1%

Structure (SMILES): O=C1N[C@@H]2C(=C[C@H](O)[C@@H](O)[C@H]2O)c2cc3c(c(O)c21)OCO3 [NARCICLASINE]
Activity (Mus musculus [13]): 23.6%

Structure (SMILES): CC1(C)CC[C@]2(C(=O)O)CC[C@]3(C)C(=CC[C@@H]4[C@@]5(C)C[C@@H](O)[C@H](O)C(C)(C)[C@@H]5CC[C@]43C)[C@@H]2C1 [MASLINIC ACID]
Activity (Mus musculus [14]): 18.2%

Structure (SMILES): CC1=C(O)C(=O)C=C2C1=CC=C1[C@@]2(C)CC[C@@]2(C)[C@@H]3C[C@](C)(C(=O)O)CC[C@]3(C)CC[C@]12C [CELASTROL]
LD50 [15]: 20.5 mg/kg
Activity (Mus musculus [16]): -27.7%
Activity (Mus musculus [17]): 1.8%
Activity (Mus musculus [18]): -45.4%

Structure (SMILES): O=C(/C=C/c1ccc(O)c(O)c1)c1ccc(O)cc1O [BUTEIN]
Activity (Mus musculus [19]): 42.9%
